Results published in patent US20190085024A1, “Alpha-Ketoamide Inhibitors Of Cysteine Proteases” (Phelix Therapeutics, priority 2017, published 2019).

What was measured:
[1] = biological target: Calpain; test: Calpain enzyme assay; format: biochemical; details: Ki by Morrison equation; pH 7.5, 5 mM CaCl2
[2] = biological target: Cathepsin L (Homo sapiens, UniProt P07711); test: Cathepsin L enzyme assay; format: biochemical; details: Ki by Morrison equation; pH 5.5, substrate Z-Phe-Arg-Amc; read-out: Cat L
Chain of Cathepsin L (P07711 114-333, species assumed): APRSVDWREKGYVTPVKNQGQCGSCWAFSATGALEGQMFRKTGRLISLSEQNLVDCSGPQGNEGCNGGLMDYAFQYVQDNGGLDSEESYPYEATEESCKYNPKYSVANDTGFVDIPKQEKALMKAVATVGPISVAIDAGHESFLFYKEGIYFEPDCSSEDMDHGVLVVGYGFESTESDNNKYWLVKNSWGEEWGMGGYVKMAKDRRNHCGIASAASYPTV
Text: Two wells contained DMSO only for controls.
Velocity was converted to μM/sec.

Row | Compound | Ki [1] [nM] | Ki [2] [nM]
1 | CCC(C)C(NC(=O)C(CC(C)C)NC(=O)Cc1ccncc1)C(=O)C(=O)NCC(=O)NC(Cc1ccc2ccccc2c1)C(N)=O (centres unmarked) [PHELIX333, N-(2-((1-amino-3-(naphthalen-2-yl)-1-oxopropan-2-yl)amino)-2-oxoethyl)-4-methyl-3-(4-methyl-2-(2-(pyridin-4-yl)acetamido)pentanamido)-2-oxohexanamide] | 0.98 | 0.59
2 | CCC(C)C(NC(=O)C(CC(C)C)NC(=O)NCc1ccccc1)C(=O)C(=O)NCC(=O)NC(Cc1ccc2ccccc2c1)C(N)=O (centres unmarked) [PHELIX334, N-(2-((1-amino-3-(naphthalen-2-yl)-1-oxopropan-2-yl)amino)-2-oxoethyl)-3-(2-(3-benzylureido)-4-methylpentamido)-4-methyl-2-oxohexanamide] | 0.67 | 0.43
3 | CCC(C)C(NC(=O)C(CC(C)C)NC(=O)Nc1ccccc1)C(=O)C(=O)NCC(=O)NC(Cc1ccc2ccccc2c1)C(N)=O (centres unmarked) [PHELIX335, N-(2-((1-amino-3-(naphthalen-2-yl)-1-oxopropan-2-yl)amino)-2-oxoethyl)-4-methyl-3-(4-methyl-2-(3-phenylureido)pentanamido)-2-oxohexanamide] | 1.45 | < 0.15
4 | CCC(C)C(NC(=O)C(CC(C)C)NC(=O)OCc1ccccc1)C(=O)C(=O)NC(CC#N)C(=O)NC(Cc1ccc2ccccc2c1)C(N)=O (centres unmarked) [PHELIX336, benzyl (1-((1-((1-((1-amino-3-(naphthalen-2-yl)-1-oxopropan-2-yl)amino)-3-cyano-1-oxopropan-2-yl)amino)-4-methyl-1,2-dioxohexan-3-yl)amino)-4-methyl-1-oxopentan-2-yl)carbamate] | 33.6 | 4.04
5 | CC[C@H](C)C(NC(=O)[C@H](CC#N)NC(=O)Cc1ccccc1)C(=O)C(=O)NCC(=O)N[C@@H](Cc1ccc2ccccc2c1)C(N)=O (some centres unmarked) [PHELIX337, N-(2-((1-amino-3-(naphthalen-2-yl)-1-oxopropan-2-yl)amino)-2-oxoethyl)-3-(3-cyano-2-(2-phenylacetamido)propanamido)-4-methyl-2-oxohexanamide] | 224 | 8.48
6 | CCC(C)C(NC(=O)C(CC(C)C)NC(=O)OCc1ccccc1)C(=O)C(=O)NC(CCCNC(N)=O)C(N)=O (centres unmarked) [PHELIX340, benzyl (1-((1-((1-amino-1-oxo-5-ureidopentan-2-yl)amino)-4-methyl-1,2-dioxohexan-3-yl)amino)-4-methyl-1-oxopentan-2-yl)carbamate] | 17.1 | 3.88
7 | CCC(C)C(NC(=O)C(CC(C)C)NC(=O)OCc1ccccc1)C(=O)C(=O)NC(CCCNC(N)=O)C(N)=O (centres unmarked) [PHELIX341, benzyl (1-((1-((1-amino-1-oxo-5-ureidopentan-2-yl)amino)-4-methyl-1,2-dioxohexan-3-yl)amino)-4-methyl-1-oxopentan-2-yl)carbamate] | 23.4 | 27.9
8 | CCC(C)C(NC(=O)C(CC(C)C)NC(=O)OCc1ccccc1)C(=O)C(=O)NC(Cc1ccncc1)C(N)=O (centres unmarked) [PHELIX342, benzyl (1-((1-((1-amino-1-oxo-3-(pyridin-4-yl)propan-2-yl)amino)-4-methyl-1,2-dioxohexan-3-yl)amino)-4-methyl-1-oxopentan-2-yl)carbamate] | 20.2 | 31.3
9 | CCC(C)C(NC(=O)C(CC(C)C)NC(=O)OCc1ccccc1)C(=O)C(=O)NC(Cc1cc2ccccc2[nH]1)C(N)=O (centres unmarked) [PHELIX343, benzyl (1-((1-((1-amino-3-(1H-indol-2-yl)-1-oxopropan-2-yl)amino)-4-methyl-1,2-dioxohexan-3-yl)amino)-4-methyl-1-oxopentan-2-yl)carbamate] | 34.1 | 3.53
10 | CC[C@H](C)C(NC(=O)[C@H](CC(C)C)NC(=O)OCc1ccccc1)C(=O)C(=O)N[C@@H](Cc1cccnc1)C(N)=O (some centres unmarked) [PHELIX344] | 26.7 | 20.6
11 | CCC(C)C(NC(=O)C(CC(C)C)NC(=O)C(Cc1ccccc1)NC(C)=O)C(=O)C(=O)NC(CCCNC(=N)N)C(N)=O (centres unmarked) [PHELIX345] | 37.1 | 11.3
12 | CCC(C)C(NC(=O)C(CC(C)C)NC(=O)C(Cc1ccccc1)NC(=O)Cc1ccncc1)C(=O)C(=O)NC(CCCNC(=N)N)C(N)=O (centres unmarked) [PHELIX346, N-(1-amino-5-guanidino-1-oxopentan-2-yl)-4-methyl-3-(4-methyl-2-(3-phenyl-2-(2-(pyridin-4-yl)acetamido)propanamido)pentanamido)-2-oxohexanamide] | 1.71 | 3.28
13 | CCC(C)C(NC(=O)C(CC(C)C)NC(=O)OCc1ccccc1)C(=O)C(=O)NCC(=O)NC(Cc1cccc(F)c1)C(N)=O (centres unmarked) [PHELIX348, benzyl (1-((1-((2-((1-amino-3-(3-fluorophenyl)-1-oxopropan-2-yl)amino)-2-oxoethyl)amino)-4-methyl-1,2-dioxohexan-3-yl)amino)-4-methyl-1-oxopentan-2-yl)carbamate] | 1.68 | 2.76
14 | CCC(C)C(NC(=O)C(CC(C)C)NC(=O)OCc1ccccc1)C(=O)C(=O)NCC(=O)NC(Cc1ccc(F)cc1)C(N)=O (centres unmarked) [PHELIX349, benzyl (1-((1-((2-((1-amino-3-(4-fluorophenyl)-1-oxopropan-2-yl)amino)-2-oxoethyl)amino)-4-methyl-1,2-dioxohexan-3-yl)amino)-4-methyl-1-oxopentan-2-yl)carbamate] | 2.27 | 2.11
15 | CCC(C)C(NC(=O)C(CC(C)C)NC(=O)OCc1ccccc1)C(=O)C(=O)NCC(=O)NC(Cc1ccc(C#N)cc1)C(N)=O (centres unmarked) [PHELIX350, benzyl (1-((1-((2-((1-amino-3-(4-cyanophenyl)-1-oxopropan-2-yl)amino)-2-oxoethyl)amino)-4-methyl-1,2-dioxohexan-3-yl)amino)-4-methyl-1-oxopentan-2-yl)carbamate] | 3.45 | 4.2
16 | CCC(C)C(NC(=O)C(CC(C)C)NC(=O)Cc1cccnc1)C(=O)C(=O)NCC(=O)N(C)C(Cc1ccccc1)C(N)=O (centres unmarked) [PHELIX351, N-(2-((1-amino-1-oxo-3-phenylpropan-2-yl)(methyl)amino)-2-oxoethyl)-4-methyl-3-(4-methyl-2-(2-(pyridin-3-yl)acetamido)pentanamido)-2-oxohexanamide] | 0.3 | 0.45
17 | CCC(C)C(NC(=O)C(CC(C)C)NC(=O)CN1CCOCC1)C(=O)C(=O)NCC(=O)N(C)C(Cc1ccccc1)C(N)=O (centres unmarked) [PHELIX352, N-(2-((1-amino-1-oxo-3-phenylpropan-2-yl)(methyl)amino)-2-oxoethyl)-4-methyl-3-(4-methyl-2-(2-morpholinoacetamido)pentanamido)-2-oxohexanamide] | 1.93 | 0.48
18 | CCC(C)C(NC(=O)C(CC(C)C)NC(=O)Cc1ccncc1)C(=O)C(=O)NCC(=O)N(C)C(Cc1ccccc1)C(N)=O (centres unmarked) [PHELIX353, N-(2-((1-amino-1-oxo-3-phenylpropan-2-yl)(methyl)amino)-2-oxoethyl)-4-methyl-3-(4-methyl-2-(2-(pyridin-4-yl)acetamido)pentanamido)-2-oxohexanamide] | 3.03 | 0.55
19 | CCC(C)C(NC(=O)C(CC(C)C)NC(=O)CN1CCOCC1)C(=O)C(=O)NC(Cc1ccc2ccccc2c1)C(N)=O (centres unmarked) [PHELIX354, N-(1-amino-3-(naphthalen-2-yl)-1-oxopropan-2-yl)-4-methyl-3-(4-methyl-2-(2-morpholinoacetamido)pentanamido)-2-oxohexanamide] | 10.1 | 19.6
